Results: EP1064941A1, “Use of melatoninergic ligands for obtaining pharmaceutical compositions for the prevention or the treatment of gastrointestinal pathologies” (ADIR ET COMPAGNIE, priority 1999, dated 2001)

Tests used:
Type in all cases: in vivo
[1] = tested on: complexes myoélectriques intestinaux; assay: Effects of melatoninergic ligands on intestinal myoelectric complexes in the rat (electrodes implanted on the intestinal wall); conditions: male Wistar rats
Method: Des rats mâles Wistar adultes placés en cycle lumière/obscurité 12h/12h sont implantés sous anesthésie d'électrodes sur la paroi de l'intestin afin d'enregistrer l'activité myoélectrique. Les rats ont un accès limité (30 min) à la nourriture pendant la période diurne.
Les composés de l'invention agonistes mélatoninergiques ou la mélatonine sont administrés par voie intraveineuse à la dose de 1 mg/kg, 10 min avant le repas. […] Ces complexes myoélectriques apparaissent tout d'abord sur le duodénum avec un délai de 50 min puis ils se propagent sur le jéjunum et l'iléon.

[2] = tested on: durée de la réponse postprandiale; assay: Effects of melatoninergic ligands on the duration of the postprandial response (irregular intestinal motor activity) in the rat; conditions: male Wistar rats, 30 min before access to food
Method: Chez le rat, la durée de la réponse postprandiale évaluée par l'activité motrice irrégulière intestinale, est plus courte en période d'obscurité que pendant la période diurne et ceci pour une même quantité d'aliments ingérés. Afin de confirmer que cette diminution de la durée pouvait être due à la sécrétion nocturne de mélatonine, le protocole suivant a été réalisé : des rats mâles Wistar adultes habitués à un cycle lumière/obscurité 12h/12h sont implantés sous anesthésie d'électrodes sur la paroi de l'intestin afin d'enregistrer l'activité myoélectrique. Les rats ont un accès limité (30 min) à la nourriture soit pendant la période nocturne soit pendant la période diurne. Les molécules de l'invention sont administrées 30 min avant l'accès à la nourriture. Le paramètre évalués dans ces études est la durée de l'activité irrégulière motrice. Les périodes de complexes myoélectriques ne sont pas prises en compte dans le cas d'induction par la molécule testée.

[3] = tested on: inflammation intestinale induite par l'indométhacine; assay: Indomethacin-induced intestinal inflammation model in the rat; conditions: male Wistar rats, 50 mg/kg ip ten minutes before each of two indomethacin doses (7,5 mg/kg sc, 24 h apart)
Source text: L'inflammation intestinale induite par administration d'indométhacine chez le rat est considérée comme un modèle animal physiopathologique présentant des modifications du comportement et de la motricité intestinale similaires à celles observées chez les patients atteints de la maladie de Crohn (Yamada T. et al, 1993, Mechanisms of acute and chronic intestinal inflammation induces by indomethacin, Inflammation, 17-6, 641-62; Gurbuz V. et al, 1999, Role of nitric oxide in indomethacin-induced gastric mucosal dysfunction in the rat, Experimental Physiology, 84, 319-332; Chen K. et al, 1999, Expression of NO II and its role in the experimental small bowel ulceration in rats, Surgery, 126, 553-561).
Des rats mâles Wistar adultes placés en cycle lumière/obscurité 12h/12h sont implantés sous anesthésie d'électrodes sur la paroi de l'intestin afin d'enregistrer l'activité myoélectrique. Les animaux sont divisés en plusieurs groupes.
Le groupe de rats témoins reçoit deux administrations d'indométhacine (7,5 mg/kg sc) espacées de 24 h. Les autres groupes de rats sont prétraités par la mélatonine ou un ligand mélatoninergique (50 mg/kg ip) dix minutes avant les deux administrations d'indométhacine.
Les animaux sont suivis sur le plan comportemental (prise alimentaire), physiologique (aspect du pelage, diarrhées) et motricité intestinale.

Compound | blocage de l'induction des complexes myoélectriques par l'agoniste ([1]; antagonist pretreatment 2 mg/kg subcutaneous, 30 min before the agonist) | durée de la réponse postprandiale nocturne ([2]; given 5 h after onset of darkness) | symptômes de l'inflammation intestinale (diarrhées, perte de poils, prise alimentaire, motricité intestinale) [3] | apparition de complexes myoélectriques pendant la réponse motrice postprandiale ([1]; 1 mg/kg intravenous, 10 min before the meal, daytime feeding (30 min access)) | délai d'apparition des complexes myoélectriques sur le duodénum ([1]; 1 mg/kg intravenous, 10 min before the meal, complexes then propagate to jejunum and ileum) [min] | durée de la réponse postprandiale diurne ([2]; 100 µg/kg intravenous, given 4 h after onset of light)
CCc1ccc2scc(CCNC(C)=O)c2c1 [N-[2-(5-éthyl-1-benzothiophèn-3-yl)éthyl]acétamide] | empêche toute formation de complexe myoélectrique | entraîne un allongement de la réponse postprandiale qui devient d'une durée équivalente à la réponse observée le jour | – | – | – | –
COc1ccc2[nH]cc(CCNC(C)=O)c2c1 [mélatonine] | – | – | ne présentent plus de diarrhées, de perte de poils, de diminution de la prise alimentaire et de la motricité intestinale | induisent l'apparition de complexes myoélectriques pendant la réponse motrice postprandiale | 50 | réduit la durée de la réponse postprandiale et la ramène à une durée de type nocturne
